Experimental data as given in patent US4599331A, “Etianic acids as antiangiogenics” (Syntex (U.S.A.) Inc., priority 1984, dated 1986).
Several values for one entry are separate records, joined by “and”; a condition that tells them apart may be missing. Identical values can stand only once. Like-named read-outs stand apart in the source and are kept apart here.

Experiments:
[1] = system: alkaline phosphatase (APb); test: alkaline phosphatase (APb) induction in LE II cells; assay type: cell-based, mouse; conditions: for Emax: Mus musculus, Table 1, about 65 hours, relative to dexamethasone = 1, read-out: Efficacy (DEX = 1) Alk P
Procedure: This is another standard test for glucocorticoid activity.
LE II cells were grown in DMEM plus 10% FCS, at 37° C., in a 10% carbon dioxide atmosphere. Confluent monolayers of cells were trypsinized and seeded at a 1:15 dilution into 6-well Costar cluster dishes. […] In all experiments, DEX, at concentrations of 10^-9 to 10^-6 M, was added to some of the wells as a positive control.
Cell monolayers were washed with PBS and harvested by scraping with a rubber policeman into 400 μl of a buffer of 20 mM Tris-HCl at pH 7.4; 2 mM MgCl2; and 150 mM NaCl together with 1% Triton X-100. Samples were transferred into 1.5 ml Eppendorf centrifuge tubes and placed on ice. The tubes were first vortexed and then centrifuged in the Eppendorf minicentrifuge for 2 minutes. Duplicate 100 μl aliquots of supernatant were placed into 12×75 mm glass test tubes for determination of APb activity, while the rest was saved for protein determination. […] The tubes were incubated in a 37° C. water bath for between 20 to 50 minutes, depending on the activity of the samples. The APb reaction was terminated by the addition of 0.5 ml of […]. The tubes were mixed and 200 μl portions from each tube were transferred in triplicate to a 96 well microtiter plate. The OD410 nm of each well was then determined using a Dynatech plate reader.
[…] of the cell supernatant were transferred to 96 well microtiter plates for protein determination by a modification of the Lowry method. […] The plates were shaken for 1 hour and then the OD630 was determined using a Dynatech plate reader. The protein content for each sample was calculated by comparing the average OD630 reading with those obtained for a bovine serum albumin standard curve.
The alkaline phosphatase activity of in each sample was expressed as μmoles product formed per minute per mg protein in the Alk P column of Tables 1 and 2. Results are expressed as the induction ability of a compound as compared to dexamethasone.

[2] = system: tyrosine aminotransferase (TAT); test: tyrosine aminotransferase (TAT) induction in HTC cells; assay type: cell-based, rat; conditions: for Emax: from 10^-6 M down, relative to dexamethasone = 1, read-out: Efficacy (DEX = 1) TAT
Procedure: In this example, tyrosine aminotransferase (TAT) activity was determined by a spectrophotometric assay. This enzyme catalyzes the conversion of tyrosine to p-hydroxyphenylpyruvate. This example is a standard in vitro test for glucocorticoid activity.
Addition of base caused the conversion of p-hydroxyphenylpyruvate to p-hydroxybenzaldehyde, which was quantitatively measured by absorbance at 331 nm. HTC cells, the target cells for the compound tested were grown in DMEM+10% FCS. Subconfluent cell cultures were incubated with test compounds in 6 well Costar dishes for 24 or 48 hours. The cells were incubated in either serum-free DMEM or DMEM containing 10% FCS previously filtered over activated charcoal. The cells were harvested in PBS using a rubber policeman, then washed once in PBS by centrifugation and resuspended in a 0.3 ml lysis buffer of 10 mM Tris, 10 mM EDTA and 0.25M sucrose at pH 7.4. The cells were then lysed by three cycles of freeze-thawing using dry ice and a 37° C. waterbath and the cells debris was pelleted by centrifugation for 2 min at 12,000 9 in an Eppendorf centrifuge.
The supernatant was used for a protein determination using either E+K stain or BioRad protein assay kit and TAT activity. 0.1 ml TAT buffer having 50 mM KH2 PO4, 1 mM EDTA, 0.1 mM Dithiothereitol (DTT), and 5 mg/ml BSA at pH 7.6 and 0.1 ml cell extract were mixed in glass tubes. A prewarmed mixture of 200 parts of a 2.3 mg/ml tyrosine solution in 0.05M phosphate buffer, 100 parts 0.125M KH2 PO4, 10 parts of a 0.92 mg/ml and ketoglutarate solution and 1 part of a 0.04 mg/ml pyridoxalphosphate solution had been previously made up. […] of the prewarmed mixture was added to each tube and allowed to react at 37° C. for 15 min. The addition of 0.1 ml 7N […] stopped the reaction. The mixture was then immediately vortexed.
Aldehyde formation was allowed to proceed at 37° C. for 30 min. The amound of aldehyde formed was determined by UV spectroscopic means. Absorbance was read at 331 nm using a solution composed of 0.1 ml TAT buffer, 0.1 ml lysis buffer, 0.7 ml reaction mixture and 0.1 ml 7N KOH as a blank. Optical Density values are linearily corrected for protein content.
As the absolute amount of enzyme induction varies between experiments, results are expressed as percent of the maximal induction obtained with dexamethasone, which was run as a standard in each assay.
In this series, compounds were assayed from 10^-6 M down. Results are expressed in the TAT column of tables 1, and 2 as the induction ability of a compound as compared to dexamethasone; a compound may either be a partial inducer or a superinducer.

[3] = system: Hamster Melanoma RPM1 1846 tumor cells; test: hamster cheek pouch (HCP) angiogenesis inhibition, 1846 tumor cell stimulus; assay type: in vivo, Male Syrian Golden hamsters; conditions: 3×10^5 tumor cells; for % Inhibition HCP Stimulus 1846: Table 1, between 0.5 and 4 mg/kg s.c. daily, each number independent result, average of six animals; for HCP % Inhibition Stimulus 1846: Table 2, compounds given daily at 0.4 mg/kg
Procedure: (§1) Each compound of the series was also tested for anti-angiogenic activity by an in vivo test that measured vascularization in a hamster's cheek pouch in response to either an angiogenic polypeptide growth factor, epidermal growth factor (EGF) or an induced […].
(§2) In this example, the in vivo angiogenesis inhibition activity of etianic acid esters was tested. Male Syrian Golden hamsters, weighing between 120 g and 150 g were anaesthetized by intraperitoneal (I.P.) injection of a rodent anaesthetic mixture consisting of 50 mg/kg ketamine hydrochloride, 5 mg/kg xylazine and 1 mg/kg acepromazine. The left cheek pouch of each animal was everted with a pincet and pinned down to a plexiglass-rubber stage and observed through a Zeiss stereomicroscope. 10 μg of EGF or 3×10^5 Hamster Melanoma RPM1 1846 tumor cells in 10 μl Cibachrome Blue agarose (Amicon) were injected subcutaneously in the left lower quadrant of the pouch with a Hamilton syringe.
(§3) The pouch was then reinserted and animals were kept under observation until recovered from anaesthesia.
(§4) The animals were dosed daily with one test compound, starting one day before stimulus injection and continuing until observation. The test compounds were dissolved in a minimum volume of ethanol and diluted in sterile phosphate buffer solution. […]
(§5) Either five days or twelve days after the EGF or tumor cell injection, animals were anaesthetized by I.P. injection of the rodent anaesthetic mixture. The pouch was everted on the stage and examined under the stereomicroscope. Pictures were taken with a 35 mm using Kodak Tungsten 50 professional films.
(§6) The following subjective scoring was used for evaluating the photographs:
(§7) 1: minimal branching of vessels in the vicinity of injection site.
(§8) 2: new vessels reach injection site, area involved is minimal (<50% of area surrounding injection site).
(§9) 3: many vessels reach and cross injection site, new vessels are tortuous, (>50% of area surrounding injection site).
(§10) 4: "full blown", many tortuous vessels, leakages, hemorrhages, 100% of area around injection site, invasion of new vessels into non-injected areas.
(§11) In the case of the tumor, tumor size was also determined. (See Table 4)
(§12) Results are expressed as the mean of the score. The results are shown in Tables 1 and 2 are percent inhibition of HCP Stimulus.

Epidermal Growth Factor = test: hamster cheek pouch (HCP) angiogenesis inhibition, EGF stimulus; assay type: in vivo, Male Syrian Golden hamsters; conditions: 10 μg EGF; for % Inhibition HCP Stimulus Epidermal Growth Factor: Table 1, between 0.5 and 4 mg/kg s.c. daily, each number independent result, average of six animals; for HCP % Inhibition Stimulus EGF: Table 2, compounds given daily at 0.4 mg/kg
Procedure: as §1, §2, §3, §4, §5, §6, §7, §8, §9, §10, §12

[4] = system: Hamster Melanoma RPM1 1846 tumor cells; test: Inhibition of tumor growth (2 week assay); assay type: in vivo, Male Syrian Golden hamsters; conditions: Table 3, dose 0.8 mg/kg; for Angiogenesis score: mean of score 0 (no new vessels) to 4 (full blown), untreated 3.1 [A], 2.9 [B]; for Tumor area Mn (mm^2): untreated 40.7 ± 16.2 [A], 27.5 ± 15.3 [B]
Procedure: as §2, §3
The animals were dosed daily with one test compound, starting one day before stimulus injection and continuing until observation. The test compounds were dissolved in a minimum volume of ethanol and diluted in sterile phosphate buffer solution. Then between 0.5 and 4 mg/kg of the test compound was injected subcutaneously.
as §5, §6, §7, §8, §9, §10, §11, §12

[5] = Rattus norvegicus, Table 1, 24 or 48 hours
[6] = Rattus norvegicus, Table 2, 24 or 48 hours

With `C[C@@H]1C[C@H]2[C@@H]3CCC4=CC(=O)C=C[C@]4(C)[C@@]3(F)[C@@H](O)C[C@]2(C)[C@@]1(O)C(=O)CO` [Dexamethasone, dexamethasone, reference compound] the “incubation time to maximum induction of alkaline phosphatase activity” value ([1]; preliminary experiments) was 48 to 72 h, the “concentration inducing maximal TAT activity” value [2] was 10^-7 M and the EC50 ([2]; Rattus norvegicus) was roughly 20 nM.

In the case of `CCC(=O)O[C@]1(C(=O)OC)[C@@H](C)C[C@H]2[C@@H]3CC(F)C4=CC(=O)C=C[C@]4(C)[C@@]3(F)[C@@H](O)C[C@@]21C` (stereo partly shown) [compound 2], the “% Inhibition HCP Stimulus 1846” value [3] is reported as 33% and 35%, the “% Inhibition HCP Stimulus Epidermal Growth Factor” value (Epidermal Growth Factor) is reported as 100% and the Emax [1] is reported as 90%. For the same compound, the Emax [2, 5] was 80%, the “Angiogenesis % Inh.” value [4] was 35% and the “Tumor area % (inhibition of tumor growth)” value [4] was 58%. For the same compound, the Angiogenesis score [4] was 1.9 and the “Tumor area Mn (mm^2)” value [4] was 11.6 ± 10.3 mm^2.

For `COC(=O)[C@@]1(OC=O)[C@H](C)C[C@H]2[C@@H]3CC(F)C4=CC(=O)C=C[C@]4(C)[C@@]3(F)[C@@H](O)C[C@@]21C` (stereo partly shown) [compound 5], the “% Inhibition HCP Stimulus Epidermal Growth Factor” value (Epidermal Growth Factor) was -25%.

`COC(=O)[C@@]1(OC(C)=O)[C@H](C)C[C@H]2[C@@H]3CC(F)C4=CC(=O)C=C[C@]4(C)[C@@]3(F)[C@@H](O)C[C@@]21C` (stereo partly shown) [compound 6] was tested, and the “% Inhibition HCP Stimulus Epidermal Growth Factor” value (Epidermal Growth Factor) was 23% and the Emax [2, 5] was 70%.

`CCCCC(=O)O[C@]1(C(=O)OC)[C@H](C)C[C@H]2[C@@H]3CC(F)C4=CC(=O)C=C[C@]4(C)[C@@]3(F)[C@@H](O)C[C@@]21C` (stereo partly shown) [compound 10] was tested, and the “% Inhibition HCP Stimulus 1846” value [3] was 24%, the “% Inhibition HCP Stimulus Epidermal Growth Factor” value (Epidermal Growth Factor) was 100% and the Emax [1] was 70%. For the same compound, the Emax [2, 5] was 90%, the “Angiogenesis % Inh.” value [4] was 23% and the “Tumor area % (inhibition of tumor growth)” value [4] was 45%. The Angiogenesis score [4] was 2.4 and the “Tumor area Mn (mm^2)” value [4] was 22.5 ± 13.7 mm^2.

In the case of `CCC(=O)O[C@]1(C(=O)SC)[C@@H](C)C[C@H]2[C@@H]3CC(F)C4=CC(=O)C=C[C@]4(C)[C@@]3(F)C(O)C[C@@]21C` (stereo partly shown) [compound 11], the “HCP % Inhibition Stimulus 1846” value [3] is reported as 28%, the “HCP % Inhibition Stimulus EGF” value (Epidermal Growth Factor) is reported as 100% and the Emax [2, 6] is reported as 140%.

With `CCCC(=O)O[C@]1(C(=O)SC)[C@@H](C)C[C@H]2[C@@H]3CCC4=CC(=O)C=C[C@]4(C)[C@@]3(F)C(O)C[C@@]21C` (stereo partly shown) [compound 12] the “HCP % Inhibition Stimulus EGF” value (Epidermal Growth Factor) was 37% and the Emax [2, 6] was 130%.

For `CCCC(=O)O[C@]1(C(=O)SC)[C@@H](C)C[C@H]2[C@@H]3CC(F)C4=CC(=O)C=C[C@]4(C)[C@@]3(F)[C@@H](O)C[C@@]21C` (stereo partly shown) [compound 13], the “HCP % Inhibition Stimulus 1846” value ([3]; 0.4 mg/kg) was 40% and 53% and 45%, the “HCP % Inhibition Stimulus EGF” value (Epidermal Growth Factor; 0.4 mg/kg) was 94% and 84% and the Emax [2, 6] was 90%. The “Angiogenesis % Inh.” value [4] was 42%, the “Tumor area % (inhibition of tumor growth)” value [4] was 78% and the Angiogenesis score [4] was 1.8. For the same compound, the “Tumor area Mn (mm^2)” value [4] was 9.1 ± 3 mm^2.

`CCCCC(=O)O[C@]1(C(=O)SC)[C@@H](C)C[C@H]2[C@@H]3CC(F)C4=CC(=O)C=C[C@]4(C)[C@@]3(F)C(O)C[C@@]21C` (stereo partly shown) [compound 14] was tested, and the “HCP % Inhibition Stimulus 1846” value [3] was 16%, the “HCP % Inhibition Stimulus EGF” value (Epidermal Growth Factor; 0.4 mg/kg) was 22% and 42% and the Emax [2, 6] was 60%.

`CCC(=O)O[C@]1(C(=O)SC)[C@H](C)C[C@H]2[C@@H]3CCC4=CC(=O)C=C[C@]4(C)[C@@]3(F)C(O)C[C@@]21C` (stereo partly shown) [compound 15] was tested, and the “HCP % Inhibition Stimulus EGF” value (Epidermal Growth Factor) was 30%.

`CCC(=O)O[C@]1(C(=O)SC)[C@H](C)C[C@H]2[C@@H]3CC(F)C4=CC(=O)C=C[C@]4(C)[C@@]3(F)C(O)C[C@@]21C` (stereo partly shown) [compound 16] was tested, and the “HCP % Inhibition Stimulus 1846” value ([3]; 0.4 mg/kg) was 25% and 35%, the “HCP % Inhibition Stimulus EGF” value (Epidermal Growth Factor) was 46% and the Emax [2, 6] was 120%.

`CCCC(=O)O[C@]1(C(=O)SC)[C@H](C)C[C@H]2[C@@H]3CC(F)C4=CC(=O)C=C[C@]4(C)[C@@]3(F)C(O)C[C@@]21C` (stereo partly shown) [compound 18] was tested, and the “HCP % Inhibition Stimulus 1846” value [3] was 16% and the Emax [2, 6] was 130%.
